Broadly, the IC50 is the midpoint of a concentration-inhibition curve. The inhibition is the percentage by which the read-out fell short of the control. What is called Cmax is the peak of the concentration-time curve. For orientation: AUC means concentration integrated over time. Higher therefore signals more exposure. In general, bioavailability refers to dose-corrected exposure relative to a reference, in per cent. By half-life is commonly meant the time needed for the level to fall by half in the phase considered. Low values mean rapid decline, high ones slow decline.

Series [1] has as its system MKN-45. The experiment in a line: cells. Conditions: Homo sapiens, MKN-45, 72 h.
Series [2] concerns the target T1, Hepatocyte growth factor receptor (Homo sapiens, UniProt P08581). Put plainly: Inhibition of c-Met (unknown origin) kinase activity using poly(Glu-Tyr) at 4:1 ratio as substrate in presence of ATP incubated for 30 mins by HTRF assay.
Series [3] has as its target T1, Hepatocyte growth factor receptor. The experiment in a line: Inhibition of c-Met (unknown origin) kinase activity using biotinylated poly-tyrosine as substrate in presence of ATP incubated for 1 hr by AlphaQuest analysis.
Series [4] deals with MKN-45. Put plainly: Antiproliferative activity against human MKN-45 cells assessed as reduction in cell proliferation incubated for 48 hrs. It is filed as functional, cell-based. Conditions: MKN-45, 48 h.
In series [5] the test system is MKN-45. Put plainly: cells. The following applies: Homo sapiens, MKN-45, 72 h. This is another data set of the same source.
In series [6] the test system is EBC-1. Put plainly: cells. The following applies: Homo sapiens, EBC-1, 72 h.
Series [7] concerns MKN-45. Put plainly: Antiproliferative activity against human MKN-45 cells assessed as reduction in cell proliferation incubated for 72 hrs by CellTiter-Glo luminescent assay. The following applies: MKN-45, 72 h. It is filed as functional, cell-based. Background: ATP-based viability assays read luminescence as a measure of living cells.
Series [8] has as its system EBC-1. The experiment in a line: Antiproliferative activity against human EBC-1 cells assessed as reduction in cell proliferation incubated for 72 hrs by CellTiter-Glo luminescent assay. Conditions: EBC-1, 72 h. The class given is functional, cell-based.
For series [9], the system named is HepG2. Put plainly: Antiproliferative activity against human HepG2 cells assessed as reduction in cell proliferation incubated for 48 hrs by MTT assay. The following applies: HepG2, 48 h. The class given is functional, cell-based.
The target in series [10] is T1, Hepatocyte growth factor receptor. The experiment in a line: Inhibition of c-Met (unknown origin) using poly(Glu-Tyr) at 4:1 ratio as substrate in presence of ATP incubated for 60 mins by ELISA. In general terms: In an ELISA, binding on a coated surface is turned into a signal by an enzyme label.
Series [11] deals with BaF3. The experiment in a line: Antiproliferative activity against mouse BaF3 cells expressing […] protein assessed as reduction in cell proliferation incubated for 72 hrs by Cell Titer-Glo luminescence assay. Conditions: BaF3, 72 h. The class given is functional, cell-based.
Series [12] concerns the target T1, Hepatocyte growth factor receptor. Put plainly: Inhibition of c-Met (unknown origin) kinase activity using peptide as substrate in presence of ATP incubated for 1 hrs by ELISA.
In the next series the test system is HeLa. The experiment in a line: Antiproliferative activity against human HeLa cells assessed as reduction in cell viability incubated for 24 hrs by MTT assay. It is filed as functional, cell-based.
In series [13] the test system is HepG2. The experiment in a line: Antiproliferative activity against human HepG2 cells assessed as reduction in cell viability incubated for 24 hrs by MTT assay. The following applies: HepG2, 24 h. The class given is functional, cell-based. For orientation: Formazan colour is commonly taken as a measure of viable cells.
The subject of series [14] is A549. The experiment in a line: Antiproliferative activity against human A549 cells assessed as reduction in cell viability incubated for 24 hrs by MTT assay. The class given is functional, cell-based. The following applies: A549, 24 h.
The next series has as its system Bel-7402. Put plainly: Antiproliferative activity against human Bel-7402 cells assessed as reduction in cell viability incubated for 24 hrs by MTT assay. It is filed as functional, cell-based. Conditions: Bel-7402, 24 h.
Series [15] addresses T1, Hepatocyte growth factor receptor. Put plainly: Inhibition of recombinant c-Met (unknown origin) using peptide as substrate in presence of ATP by TR-FRET assay.
A further series relates to Hs746T. Put plainly: Antiproliferative activity against human Hs746T cells assessed as reduction in cell viability incubated for 72 hrs by WST-8 assay. It is filed as functional, cell-based.
The target in series [16] is T1, Hepatocyte growth factor receptor. Put plainly: Inhibition of His6-tagged recombinant human c-Met using 5FAM-KKK-SPGEYVNIGFG-NH2 as substrate in presence of ATP incubated for 60 mins by AiphaQuest assay.
The target is the same in series [17]. Put plainly: Inhibition of c-Met (unknown origin).
For series [18], the system named is BaF3. The experiment in a line: cells. The following applies: Mus musculus, BaF3, 72 h.
The next series deals with HUVEC. The experiment in a line: cells. Conditions: Homo sapiens, 72 h.
Series [19] has as its system HT-29. Put plainly: Antiproliferative activity against human HT-29 cells assessed as reduction in cell proliferation incubated for 72 hrs by MTT assay. It is filed as functional, cell-based. Conditions: HT-29, 72 h.
Series [20] has as its system EBC-1. Put plainly: cells. The following applies: Homo sapiens, EBC-1, 72 h. This is another data set of the same source.
Series [21] in a line: Cmax in mouse at 10 mg/kg, po. It is filed as ADME, organism-based. Further details: dose 10 mg/kg, route po. The following applies: in vivo.
The test system of another series is SNU-5. Put plainly: cells. Conditions: Homo sapiens, SNU-5, 72 h.
Series [22] in a line: AUC in mouse at 10 mg/kg, po. The arrangement: dose 10 mg/kg, route po. Conditions: in vivo. The class given is ADME, organism-based.
The nature of series [23]: Oral bioavailability in mouse at 10 mg/kg. It is filed as ADME, organism-based. The following applies: in vivo.
The nature of series [24]: Half life in mouse at 10 mg/kg, po. The class given is ADME, organism-based. The following applies: in vivo.
The test system of series [25] is NIH3T3. The experiment in a line: cells. The following applies: Mus musculus, NIH3T3, 72 h.
The test system of series [26] is BaF3. Put plainly: cells. Conditions: Mus musculus, BaF3, 72 h. This is another data set of the same source.
In series [27] the test system is NIH3T3. Put plainly: In vivo antitumor activity against mouse NIH3T3 cells expressing […] protein xenografted in nude mouse assessed as tumor growth inhibition at 100 mg/kg,po for 11 days. The class given is functional. Conditions: NIH3T3, 264 h, time 11 day, read-out: TGI.
For series [28], the system named is MKN-45. The experiment in a line: Antiproliferative activity against human MKN-45 cells assessed as reduction in cell proliferation incubated for 48 hrs by sulforhodamine B assay. The class given is functional, cell-based. The following applies: MKN-45, 48 h.
In series [29] the target is T1, Hepatocyte growth factor receptor. Put plainly: Inhibition of c-Met (unknown origin) kinase activity using peptide as substrate in presence of 33P-ATP incubated for 20 to 30 mins by scintillation counter analysis.
Series [30] relates to HT-29. The experiment in a line: Antiproliferative activity against human HT-29 cells assessed as reduction in cell proliferation incubated for 48 hrs by sulforhodamine B assay. It is filed as functional, cell-based. Conditions: HT-29, 48 h.
The test system of series [31] is A549. The experiment in a line: Antiproliferative activity against human A549 cells assessed as reduction in cell proliferation incubated for 48 hrs by sulforhodamine B assay. The class given is functional, cell-based. The following applies: A549, 48 h.

T1 sequence (P08581 whole entry): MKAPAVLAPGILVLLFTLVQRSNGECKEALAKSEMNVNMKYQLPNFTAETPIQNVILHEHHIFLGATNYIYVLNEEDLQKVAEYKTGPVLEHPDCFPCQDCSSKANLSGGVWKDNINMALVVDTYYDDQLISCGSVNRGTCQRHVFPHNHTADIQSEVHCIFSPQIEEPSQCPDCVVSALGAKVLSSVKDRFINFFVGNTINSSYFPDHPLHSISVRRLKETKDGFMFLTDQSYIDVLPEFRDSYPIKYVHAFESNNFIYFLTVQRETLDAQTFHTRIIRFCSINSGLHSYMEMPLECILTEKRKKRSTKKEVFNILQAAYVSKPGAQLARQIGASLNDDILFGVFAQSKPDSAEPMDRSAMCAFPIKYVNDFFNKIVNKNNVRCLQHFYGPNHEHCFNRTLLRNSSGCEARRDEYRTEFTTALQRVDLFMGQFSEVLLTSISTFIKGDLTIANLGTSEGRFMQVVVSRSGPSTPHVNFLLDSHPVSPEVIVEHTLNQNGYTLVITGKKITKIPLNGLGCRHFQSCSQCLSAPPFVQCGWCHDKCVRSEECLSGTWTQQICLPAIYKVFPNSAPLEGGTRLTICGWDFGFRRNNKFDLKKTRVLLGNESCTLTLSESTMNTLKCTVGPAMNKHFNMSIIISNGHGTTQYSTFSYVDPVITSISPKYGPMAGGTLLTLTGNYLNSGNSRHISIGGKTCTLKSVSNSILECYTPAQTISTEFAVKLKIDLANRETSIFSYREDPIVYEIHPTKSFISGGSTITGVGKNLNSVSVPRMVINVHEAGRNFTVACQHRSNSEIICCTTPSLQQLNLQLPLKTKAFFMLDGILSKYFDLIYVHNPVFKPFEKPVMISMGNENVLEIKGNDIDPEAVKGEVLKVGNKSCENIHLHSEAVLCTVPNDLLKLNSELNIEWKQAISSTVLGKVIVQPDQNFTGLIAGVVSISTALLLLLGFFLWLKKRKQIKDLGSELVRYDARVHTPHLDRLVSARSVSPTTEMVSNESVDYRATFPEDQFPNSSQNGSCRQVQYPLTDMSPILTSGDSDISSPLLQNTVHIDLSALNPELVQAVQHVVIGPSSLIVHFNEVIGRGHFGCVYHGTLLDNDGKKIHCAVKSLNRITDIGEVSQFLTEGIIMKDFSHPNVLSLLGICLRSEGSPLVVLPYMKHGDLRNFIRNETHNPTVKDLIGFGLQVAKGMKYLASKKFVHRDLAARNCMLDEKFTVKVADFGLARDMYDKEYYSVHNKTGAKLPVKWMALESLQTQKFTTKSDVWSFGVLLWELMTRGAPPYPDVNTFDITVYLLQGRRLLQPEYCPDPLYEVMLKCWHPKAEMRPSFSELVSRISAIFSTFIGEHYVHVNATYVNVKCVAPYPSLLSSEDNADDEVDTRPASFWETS

As to `COc1cc2c(Oc3ccc(N/C=C4\C(=O)N(c5ccccc5C(F)(F)F)N=C4C)cc3F)ccnc2cc1OCCCN1CCOCC1`, the IC50 worked out at 30 nM in the series on MKN-45 [1] and 2.2 nM in series [2].
Turning to `OC1CCC(n2cc(-c3ncc4ncn(Cc5ccc6ncccc6c5)c4n3)cn2)CC1` (stereo not given), the concentration for half-maximal inhibition (IC50) in series [3] came to 10400 nM; with MKN-45 [4] it was 125000 nM.
As for `COc1cc2c(Oc3ccc(NC(=O)Nc4nc5c(C)ccc(C)c5s4)cc3F)ccnc2cc1OCCCN1CCN(C)CC1`, the IC50 with MKN-45 [1] was determined as 60 nM; in series [2] it was 17.6 nM.
On to `CNC(=O)c1ccc(-c2ccc3ncc(S(=O)(=O)n4ccc5cnccc54)n3c2)cc1F`, for which the figures for the IC50 in the series with MKN-45 [5] and in the series with EBC-1 [6] were 9.9 nM and 19.8 nM, respectively.
For the compound `Fc1ccc(Cl)c(Sc2n[nH]c3ncc(-c4cnn(C5CCNCC5)c4)cc23)c1Cl`, the IC50 with MKN-45 [7] was 329 nM; in the series on EBC-1 [8], 479 nM.
Take `COc1cc2c(Oc3ccc(NC(=O)c4cn(-c5ccccc5C(F)(F)F)c5ccccc5c4=O)cc3F)ccnc2cc1OCCCN1CCCCC1`: the IC50 with MKN-45 [1] came to 10 nM; in series [2], 1.35 nM.
Regarding `CC(C)(C)OC(=O)N1CCc2c(sc3ncnc(Oc4ccc(NC(=O)C5(C(=O)Nc6ccc(F)cc6)CC5)cc4F)c23)C1`, the IC50 in the series with HepG2 [9] is 1700 nM.
Regarding `Cc1ccc(N2NC(=O)/C(=C/c3ccc(-c4cc([N+](=O)[O-])ccc4O)o3)C2=O)cc1C`, the concentration for half-maximal inhibition (IC50) in series [10] worked out at 460 nM.
For `Clc1ccc(-c2cn3cccc(COc4nnc5ccc(Cl)nn45)c3n2)c(Cl)c1`, the IC50 with BaF3 [11] amounted to 253 nM; in series [12], 53.4 nM.
Take `CC(C)=C1C/C=C(\C)CC/C=C(\C)CC1OC(=O)c1ccc(C)cc1` (stereo not given): the IC50 in the series on HeLa turned out to be 83600 nM; with HepG2 [13] it was 68200 nM; in the series on A549 [14], 84800 nM; with Bel-7402 it was 75800 nM.
With `Cn1cc(-c2ccc(=O)n(C[C@@H]3CN(c4ncc(OCC5CCNCC5)cn4)CCO3)n2)cn1`, the concentration for half-maximal inhibition (IC50) in series [15] came out at 19 nM; with Hs746T, 3170 nM.
For the compound `CC(C)=C1C/C=C(\C)CC/C=C(\C)CC1OS(=O)(=O)c1ccc(C)cc1` (stereo not given), the inhibition in series [16] is 56%. In addition, the IC50 in the series on HeLa amounted to 88600 nM; with HepG2 [13], 56200 nM; in the series on A549 [14] it was 84500 nM; in the series on Bel-7402 it was 71800 nM.
`c1cnc2ccc(Cn3nnc4ncc(-c5ccc6[nH]c7c(c6c5)CNCC7)nc43)cc2c1` showed a half-inhibitory concentration (IC50) in series [17] of 14.5 nM.
Regarding `Cc1c(C(=O)Nc2ccc(Oc3ccnc(-c4nncn4CCCN4CCN(C)CC4)c3)c(F)c2)c(=O)n(-c2ccccc2)n1C`, the IC50 turned out to be 130 nM in the series on BaF3 [18] and 300 nM with HUVEC.
Regarding `COc1cc2c(Oc3ccc(N/C=C(\C#N)C(=O)Nc4ccc(C)cc4)cc3F)ccnc2cc1OCCCN1CCN(C)CC1`, the half-maximal inhibitory concentration (IC50) amounted to 40 nM in the series with HT-29 [19] and 390 nM in the series with MKN-45 [1].
As to `COc1ccc2c(OCc3nnc4ncc(-c5ccccc5)nn34)ccnc2c1`, the values for the IC50 with MKN-45 [1] and in the series on EBC-1 [20] were 21 nM and 12 nM, respectively.
The compound `O=C(Nc1ccc(Oc2ccnc3[nH]c(-c4ccsc4)nc23)cc1)c1cccn(-c2ccc(F)cc2)c1=O` showed a Cmax in series [21] of 2170 ng/mL. Besides, the 50% inhibitory concentration (IC50) came out at 4300 nM with MKN-45 [1], 5300 nM in the series on SNU-5, 1600 nM in the series on NIH3T3 [25] and 590 nM with BaF3 [26]. Also, in series [22], the AUC stood at 6280 ng·h/mL. In series [23], the bioavailability is 28.3%. In addition, the half-life in [24] is 2.07 h. For the same compound, the inhibition in vivo at 100 mg/kg in the series on NIH3T3 [27] was 30.9%.
Compound `COc1cc2nccc(Oc3ccc(NC(=O)C4(Cl)CCCN(c5ccc(F)cc5)C4=O)cc3F)c2cc1OC` (stereo not given) showed an IC50 in the series with MKN-45 [5] of 570 nM.
On to `COC(=O)c1ccc(N2NC(=O)/C(=C/c3ccc(-c4ccc(Cl)c(C(=O)O)c4)o3)C2=O)cc1`, for which, in [10], the IC50 worked out at 9500 nM.
As to `O=C(CSc1nc(=O)c(/C=C/c2ccco2)n[nH]1)N/N=C/c1cccs1`, the IC50 in the series with MKN-45 [28] was 60 nM; in series [29], 4310 nM; in the series with HT-29 [30], 30 nM; in the series with A549 [31], 20 nM.
Compound `COc1cc2c(Oc3ccc(NC(=O)/C=C/S(=O)(=O)c4ccccc4)cc3F)ccnc2cc1OCCCN1CCN(C)CC1` showed an IC50 in the series on MKN-45 [1] of 450 nM.

Source of the values: ChEMBL document CHEMBL5260829, “Recent advances in the discovery of small molecule c-Met Kinase inhibitors” (Eur J Med Chem, 2018).
